US9914712B2, “Antibacterial thiazolecarboxylic acids” (priority 2013, dated 2018)

How the values were obtained:
[1] = target: T1, IMP-1 (Serratia marcescens, UniProt P52699); experiment: In vitro MBL inhibition assay, imipenem hydrolysis (IMP-1); assay type: biochemical; conditions: Ki IMP-1, imipenem substrate, Ki from IC50 by Cheng-Prusoff, Km 25 μM
T1 construct: made in house
Description: The MBL enzyme IMP-1 is produced and purified as disclosed in Laraki et al, Antimicrobial Agents & Chemotherapy, (1999), 43(4), 902-906.
(§1) Reaction buffers were prepared in a UV-transparent 96-well microplate, which buffer contains 10 mM HEPES pH 7.5, 50 μM ZnSO4, 20 μg/mL BSA. An amount of 75 ng of protein was added to each well.
(§2) Spectrophometric assays are performed to determine NDM-1/VIM-2/IMP-1 carbapenemase activity using purified proteins (50 ng for NDM-1/VIM-2, 25 ng IMP-1) from NDM-1/VIM-2/IMP-1 expressing bacteria using […] of imipenem as substrate in 10 mM HEPES pH 7.5, 50 μM ZnSO4. MBL hydrolysis is measured at 299 nm for 10 minutes at 30° C. as the absorbance changes due to the opening of beta-lactam ring of the antibiotic.
(§3) The Ki values obtained for selected example compounds are shown in Table 3, where they are compared with the values for pyridine-2-carboxylic acid.

[2] = system: NTBC039; experiment: MIC of meropenem in presence of the inhibitor, broth microdilution; assay type: cell-based; conditions: compound at 100 μM, 37° C., 18-20 h
[3] = target: T2, VIM-2 (Escherichia coli, UniProt Q5U7L7); experiment: In vitro MBL inhibition assay, imipenem hydrolysis (VIM-2); assay type: biochemical; conditions: Ki VIM-2, imipenem substrate, Ki from IC50 by Cheng-Prusoff, Km 9 μM
T2 construct: made in house
Description: The MBL enzyme VIM-2 is produced and purified as disclosed in Borgianni et al, Antimicrobial Agents & Chemotherapy, (2010), 54(8), 3197-3204.
as §1, §2, §3

[4] = target: T3, NDM-1 (Klebsiella pneumoniae, UniProt C7C422); experiment: In vitro MBL inhibition assay, imipenem hydrolysis (NDM-1); assay type: biochemical; conditions: Ki NDM-1, imipenem substrate, Ki from IC50 by Cheng-Prusoff, Km 70 μM
T3 construct: made in house
Description: NDM-1 is produced and purified as disclosed in Yong et al, Antimicrobial Agents & Chemotherapy, (2009) 53(12), 5046-54.
as §1, §2, §3

[5] = system: NTBC023 strain: Klebsiella pneumoniae producing VIM-1+SHV-5; experiment: MIC of meropenem in presence of the inhibitor, broth microdilution; assay type: cell-based; conditions: compound at 100 μM, 37° C., 18-20 h
Description: (§4) The minimal inhibitory concentration (MIC) of meropenem in presence of the inhibitor is routinely assessed against 3 representative clinical strains: • NTBC020 Strain: Escherichia coli producing NDM-1+TEM-1+CTX-M-15, (isolated in Australia in 2009); • NTBC023 strain: Klebsiella pneumoniae producing VIM-1+SHV-5, (isolated in France in 2002); • NTBC062 strain: Klebsiella pneumoniae producing IMP-1+TEM-1, (isolated in France in 2012);
(§5) The assay was performed according to the standard broth microdilution method described by the Clinical and Laboratory Standards Institute (CLSI-M7-A7—Methods for dilution antimicrobial susceptibility tests for bacteria that grow aerobically; Approved standard; CLSI, Wayne, Pa., USA. 2006). This method involves the use of small volumes of broth dispensed in sterile, plastic 96-wells microdilution plates. The compounds were tested at a concentration of 100 μM and controls included the susceptibility tests for the three selected strains without the compounds and for the two reference strains E. coli ATCC 25922 and Pseudomonas aeruginosa ATCC 27853 as Quality Controls.
(§6) From a stock solution at 20 mM in DMSO, compounds were prepared by diluting 0.04 mL of the compound solution in 0.04 mL of Mueller-Hinton (MH) broth (2-fold dilution). Then, 0.001 mL of the compound dilution was distributed in the 96-wells microdilution plates to give a final concentration of 100 μM for a final volume of 0.1 mL by well.
(§7) From a meropenem stock solution at 10 mg/ml in water, meropenem 2-fold serial dilutions were prepared in MH broth at twice the desired final concentrations, e.g from 512 to 0.0037 μg/ml. The 96-wells microdilution plates were then filled with 0.05 mL of the meropenem dilutions. For each susceptibility test, two wells were left free of antibiotic and filled with 0.05 mL of sterile MH broth to serve as growth controls.
(§8) The bacterial inoculum was prepared by direct colony suspension from a 24 h-agar plate in saline solution (NaCl 9 g/L). The suspension was adjusted to a 0.5 MacFarland turbidity standard (1-2×10^8 CFU/mL) and then diluted 1:100 in MH broth. 0.05 mL of the bacterial dilution was then inoculated to each well giving a final volume of 0.1 mL and a final bacterial concentration of approximately 5×10^5 CFU/mL.
(§9) Microdilution plates were incubated at 37° C. in an ambient air incubator for 18-20 h.

[6] = system: NTBC020 Strain: Escherichia coli producing NDM-1+TEM-1+CTX-M-15; experiment: as above; assay type: cell-based; conditions: compound at 100 μM, 37° C., 18-20 h
Description: as §4, §5, §6, §7, §8, §9

T3 sequence (C7C422 29-270 limits assumed): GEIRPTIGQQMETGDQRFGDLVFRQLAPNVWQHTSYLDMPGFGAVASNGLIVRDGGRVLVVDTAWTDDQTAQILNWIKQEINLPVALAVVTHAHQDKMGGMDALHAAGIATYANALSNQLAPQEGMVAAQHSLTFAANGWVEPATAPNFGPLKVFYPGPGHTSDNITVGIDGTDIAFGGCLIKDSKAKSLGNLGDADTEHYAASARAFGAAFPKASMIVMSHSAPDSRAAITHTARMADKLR
T1 sequence (P52699 19-246, species assumed): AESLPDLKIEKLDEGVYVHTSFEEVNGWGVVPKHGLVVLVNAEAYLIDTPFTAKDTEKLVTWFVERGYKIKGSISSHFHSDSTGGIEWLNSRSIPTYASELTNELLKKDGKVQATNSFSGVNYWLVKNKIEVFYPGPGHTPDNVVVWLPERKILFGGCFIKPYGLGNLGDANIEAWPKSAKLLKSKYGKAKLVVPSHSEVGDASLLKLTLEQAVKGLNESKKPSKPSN

SMILES | Ki [1] | MIC of meropenem, strain NTBC039 [2] | Ki [3] | Ki [4] | MIC of meropenem, strain NTBC023 [5] | MIC of meropenem, strain NTBC020 [6]
O=C(O)c1ncsc1NS(=O)(=O)c1ccccc1 [Compound 1, 5-benzenesulfonamido-1,3-thiazole-4-carboxylic acid] | 80 nM | 16 µg/mL | 320 nM | 1200 nM | 64 µg/mL | 32 µg/mL
O=C(O)c1ncsc1NS(=O)(=O)c1csc2ccccc12 [Compound 41, 5-(1-benzothiophene-3-sulfonamido)-1,3-thiazole-4-carboxylic acid] | 80 nM | 4 µg/mL | 220 nM | 670 nM | 16 µg/mL | 64 µg/mL
O=C(O)c1ncsc1NS(=O)(=O)CC1CCOCC1 [Compound 111, 5-[(oxan-4-ylmethyl)sulfonamido]-1,3-thiazole-4-carboxylic acid] | 900 nM | 0.25 µg/mL | 220 nM | 2800 nM | 8 µg/mL | 4 µg/mL
O=C(O)c1ncsc1NS(=O)(=O)c1ccc(N2CCCCC2)nc1 [Compound 138, 5-[6-(piperidin-1-yl)pyridin-3-ylsulfonamido]-1,3-thiazole-4-carboxylic acid] | 130 nM | 1 µg/mL | 10 nM | 430 nM | 16 µg/mL | 32 µg/mL
O=C(O)c1ncsc1NS(=O)(=O)c1ccc(OC2CCNC2)cc1 (centres unmarked) [Compound 163, 5-[4-(pyrrolidin-3-yloxy)phenylsulfonamido]-1,3-thiazole-4-carboxylic acid] | 1000 nM | 16 µg/mL | 280 nM | 370 nM | 32 µg/mL | 16 µg/mL
O=C(O)c1ncsc1NS(=O)(=O)Cc1cccnc1 [Compound 170, 5-(3-pyridylmethylsulfonylamino)thiazole-4-carboxylic acid] | – | 0.25 µg/mL | 460 nM | 4200 nM | 1 µg/mL | 16 µg/mL
N[C@@H](C(=O)N1CCC(c2ccc(S(=O)(=O)Nc3scnc3C(=O)O)cc2)CC1)c1ccccc1 [Compound 172, S-5-[[4-[1-(2-amino-2-phenyl-acetyl)-4-piperidyl]phenyl]sulfonylamino]thiazole-4-carboxylic acid] | 760 nM | 8 µg/mL | 50 nM | 220 nM | 8 µg/mL | 64 µg/mL
N[C@@H](C(=O)N1CCC(c2ccc(S(=O)(=O)Nc3scnc3C(=O)O)cc2)CC1)c1ccccc1 [Compound 173, R-5-[[4-[1-(2-amino-2-phenyl-acetyl)-4-piperidyl]phenyl]sulfonylamino]thiazole-4-carboxylic acid] | 330 nM | 8 µg/mL | 40 nM | 180 nM | 8 µg/mL | 128 µg/mL
